Test results reported in patent US20190374526A1, “Substituted Heterocyclic Compounds as Inhibitors of PRDM9” (Merck Sharp & Dohme Corp., priority 2018, published 2019).

Biological target: T1, hPRDM9 (amino acids 195-385) (Homo sapiens, UniProt Q9NQV7)
T1 construct: 1.25 nM hPRDM9 (amino acids 195-385)
T1 sequence (Q9NQV7 195-385): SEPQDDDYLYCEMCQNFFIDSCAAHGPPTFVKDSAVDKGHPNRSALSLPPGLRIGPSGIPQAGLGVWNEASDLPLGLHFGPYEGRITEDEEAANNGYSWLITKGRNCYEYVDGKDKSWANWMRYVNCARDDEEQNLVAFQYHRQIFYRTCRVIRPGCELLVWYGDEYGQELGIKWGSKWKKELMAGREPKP
Experiment: PRDM9 biochemical assay (radiometric, 3[H] methyl transfer from SAM to biotinylated histone H3 peptide)
Settings: 1 nM hPRDM9, 1 μM biotinylated H3(1-25)K4 peptide, 5 μM 3[H]-SAM, 55 μM un-labeled SAM, 25° C., 30 minutes
Method: The PRDM9 biochemical assay was carried out using a radiometric format involving the transfer of ^3[H] methyl group from S-adenosyl methionine (SAM) to a biotinylated histone H3 peptide (H3(1-25)K4). 10 mM compounds in DMSO were diluted 20 fold in assay buffer (10 mM Tris-HCl, pH 8.5, 10 mM DTT, and 0.01% Triton X-100) before adding […] to a well in a 384 well polypropylene microplate plate and adding 8 μl of reaction mix (1.25 nM hPRDM9 (amino acids 195-385), 1.25 μM biotinylated H3 peptide in assay buffer). The ^3[H]-SAM and cold SAM stock solutions were diluted to 50 μM and 550 μM respectively in assay buffer before aliquoting 1 μl of 50 μM ^3[H]-SAM, 550 μM SAM into each well to initiate the reaction. The assay was performed at 25° C. at the final concentrations of 1 nM hPRDM9, 1 μM peptide, 5 μM ^3[H]-SAM, and 55 μM un-labeled SAM in assay buffer. The reaction was quenched after 30 minutes by adding 25 μl 7.5 M Guanidine-HCl. Quenched reactions were transferred to streptavidin coated Flashplates, diluted two fold in assay buffer, incubated for 1 hour, and read on a Perkin Elmer Topcount instrument. Compound activity was expressed relative to activity of 0.5% (v/v) DMSO treated samples and fit to a four parameter logistic equation to determine IC50 values.

SMILES | IC50
Cc1cc(NCC23CC2CN(c2nc(-c4cc(Cl)cc(Cl)c4)no2)C3)ccn1 (centres unmarked) [Compound 168] | 9 µM
Cc1cc(NCC2CC(C)N(c3nc(-c4cc(Cl)cc(Cl)c4)no3)C2)ccn1 (centres unmarked) [Compound 172] | 5.29 µM
Cc1cc(NCC2CC(C)N(c3nc(-c4cc(Cl)cc(Cl)c4)no3)C2)ccn1 (centres unmarked) [Compound 173] | 5.5 µM
Cc1cc(NCC2CN(c3nc(-c4cc(Cl)cc(Cl)c4)no3)CCC2C)ccn1 (centres unmarked) [Compound 174] | 1.58 µM
Cc1cc(NC2CCC3CN(c4nc(-c5cc(Cl)cc(Cl)c5)no4)CC32)ccn1 (centres unmarked) [Compound 178] | 1.15 µM
COc1cc(OC)cc(-c2noc(N3CC(c4ccccc4)OC4(CCN(c5ccnc(C)c5)CC4)C3)n2)c1 (centres unmarked) [Compound 181] | 2.14 µM
COc1cc(OC)cc(-c2noc(N3CCC(O)C4(CCN(c5ccnc(C)c5)CC4)C3)n2)c1 (centres unmarked) [Compound 186] | 0.217 µM
COc1cc(N2CC3(CCCN(c4nc(-c5cc(Cl)cc(Cl)c5)no4)C3)C2)ccn1 [Compound 193] | 2 µM
Clc1cc(Cl)cc(-c2noc(N3CCCC4(CN(c5ccncc5)C4)C3)n2)c1 [Compound 203] | 1 µM
O=c1cc(N2CC3(CCCN(c4nc(-c5cc(Cl)cc(Cl)c5)no4)C3)C2)cc[nH]1 [Compound 208] | 5 µM
Cc1cc(N2CCC3C2CCCN3c2nc(-c3cc(Cl)cc(Cl)c3)no2)ccn1 (centres unmarked) [Compound 213] | 1 µM
Cc1cc(N2CCC(CNc3nc(-c4cc(Cl)cc(Cl)c4)no3)C2)ccn1 (centres unmarked) [Compound 215] | 11 µM
Cc1cc(N2CCC3(CCCN(c4nc(-c5cc(Cl)cc(Cl)c5)no4)C3)CC2)ccn1 [Compound 216] | 0.246 µM
Cc1cc(N2CCC3C(CCN3c3nc(-c4cc(Cl)cc(Cl)c4)no3)C2)ccn1 (centres unmarked) [Compound 218] | 35.5 µM
Cc1cc(N2CCC3CN(c4nc(-c5cc(Cl)cc(Cl)c5)no4)CC3C2)ccn1 (centres unmarked) [Compound 219] | 4.3 µM
Cc1cc(NC(C)C2CCN(c3nc(-c4cc(Cl)cc(Cl)c4)no3)C2)ccn1 (centres unmarked) [Compound 222] | 13.8 µM
Cc1cc(N2CCC(Nc3nc(-c4cc(Cl)cc(Cl)c4)no3)CC2)ccn1 [Compound 225] | ≥ 50 µM
Cc1cc(NC(C)C2CCN(c3nc(-c4cc(Cl)cc(Cl)c4)no3)C2)ccn1 (centres unmarked) [Compound 227] | 35.5 µM
Cc1cc(N2CCC3(CCC3Nc3nc(-c4cc(Cl)cc(Cl)c4)no3)CC2)ccn1 (centres unmarked) [Compound 230] | 11.5 µM
N#Cc1cncc(N2CC3(CCCN(c4nc(-c5cc(Cl)cc(Cl)c5)no4)C3)C2)c1 [Compound 232] | 2 µM
Cc1cc(N2CC3(CC(Nc4nc(-c5cc(Cl)cc(Cl)c5)no4)C3)C2)ccn1 [Compound 234] | 8.03 µM
COc1cccc(-c2noc(N3CCCC4(CCN(c5ccnc(C)c5)CC4)C3)n2)c1 [Compound 236] | 0.4 µM

Second part, the compound after the results:

IC50 | SMILES
0.315 µM | COc1cc(OC)cc(-c2noc(N3CCN(C)C4(CN(c5ccnc(C)c5)C4)C3)n2)c1 [Compound 164]
0.8 µM | COc1cccc(-c2noc(N3CCOC4(CCN(c5ccnc(C)c5)CC4)C3)n2)c1 [Compound 166]
23 µM | COc1cccc(-c2noc(N3CC4CC4(CNc4ccnc(C)c4)C3)n2)c1 (centres unmarked) [Compound 167]
2 µM | COc1cccc(-c2noc(N3CCOC(CCNc4ccnc(C)c4)C3)n2)c1 (centres unmarked) [Compound 169]
0.4 µM | Cc1cc(NCCC2CN(c3nc(-c4cc(Cl)cc(Cl)c4)no3)CCO2)ccn1 (centres unmarked) [Compound 170]
4 µM | COc1cccc(-c2noc(N3CCC(CCNc4ccnc(C)c4)C3)n2)c1 (centres unmarked) [Compound 171]
3.81 µM | Cc1cc(NCCC2CN(c3nc(-c4cc(Cl)cc(Cl)c4)no3)c3ccccc32)ccn1 (centres unmarked) [Compound 175]
13.6 µM | Cc1cc(NCC2CN(c3nc(-c4cc(Cl)cc(Cl)c4)no3)CCC2C)ccn1 (centres unmarked) [Compound 176]
8.64 µM | Cc1cc(NC2CCC3CN(c4nc(-c5cc(Cl)cc(Cl)c5)no4)CC32)ccn1 (centres unmarked) [Compound 177]
0.08 µM | COc1cc(OC)cc(-c2noc(N3Cc4ccccc4C4(CCN(c5ccnc(C)c5)CC4)C3)n2)c1 [Compound 180]
0.163 µM | COc1cc(OC)cc(-c2noc(N3CCCC4(CN(c5ccnc(C)c5)C4)C3)n2)c1 [Compound 182]
0.814 µM | COc1cc(OC)cc(-c2noc(N3CC(F)(F)OC4(CCN(c5ccnc(C)c5)CC4)C3)n2)c1 [Compound 184]
45 µM | COc1cc(OC)cc(-c2noc(N3CCCC4(CCN(c5cc(C)nc(F)c5)CC4)C3)n2)c1 [Compound 188]
19 µM | Clc1cc(Cl)cc(-c2noc(N3CCCC4(CN(c5cccnn5)C4)C3)n2)c1 [Compound 196]
2 µM | N#Cc1ccnc(N2CC3(CCCN(c4nc(-c5cc(Cl)cc(Cl)c5)no4)C3)C2)c1 [Compound 197]
19 µM | OCc1ncc(N2CC3(CCCN(c4nc(-c5cc(Cl)cc(Cl)c5)no4)C3)C2)cn1 [Compound 200]
2 µM | Clc1cc(Cl)cc(-c2noc(N3CCCC4(CN(c5cnccn5)C4)C3)n2)c1 [Compound 202]

IC50 | SMILES
0.16 µM | Cc1cc(N2CC3(CCCN(c4nc(-c5cc(Cl)cc(Cl)c5)no4)C3)C2)cc(C)n1 [Compound 205]
1.6 µM | CC(C)c1cc(N2CC3(CCCN(c4nc(-c5cc(Cl)cc(Cl)c5)no4)C3)C2)ccn1 [Compound 206]
0.4 µM | CCc1cc(N2CC3(CCCN(c4nc(-c5cc(Cl)cc(Cl)c5)no4)C3)C2)ccn1 [Compound 207]
35 µM | Cc1cc(N2CCCC3CN(c4nc(-c5cc(Cl)cc(Cl)c5)no4)CC32)ccn1 (centres unmarked) [Compound 210]
24 µM | Cc1cc(N2CCC(C)(Nc3nc(-c4cc(Cl)cc(Cl)c4)no3)C2)ccn1 (centres unmarked) [Compound 211]
24 µM | Cc1cc(N2CC3CCN(c4nc(-c5cc(Cl)cc(Cl)c5)no4)C3C2)ccn1 (centres unmarked) [Compound 212]
0.464 µM | Cc1cc(N2CCC3(CC2)CCN(c2nc(-c4cc(Cl)cc(Cl)c4)no2)C3)ccn1 [Compound 214]
29.2 µM | Cc1cc(N2CC[C@H](Nc3nc(-c4cc(Cl)cc(Cl)c4)no3)C[C@@H]2C)ccn1 [Compound 217]
9.2 µM | Cc1cc(NCC2=CCCN(c3nc(-c4cc(Cl)cc(Cl)c4)no3)C2)ccn1 [Compound 220]
5.38 µM | Cc1cc(NCC2CCCN(c3nc(-c4cc(Cl)cc(Cl)c4)no3)C2)ccn1 (centres unmarked) [Compound 221]
12.1 µM | Cc1cc(N2CCC3(CCCN(c4nc(-c5cc(Cl)cc(Cl)c5)no4)C3)C2)ccn1 (centres unmarked) [Compound 223]
34.3 µM | Cc1cc(N2CC3C(C2)C3Nc2nc(-c3cc(Cl)cc(Cl)c3)no2)ccn1 (centres unmarked) [Compound 228]
37.3 µM | Cc1cc(N2CCCC3(CCN3c3nc(-c4cc(Cl)cc(Cl)c4)no3)C2)ccn1 (centres unmarked) [Compound 231]
2.75 µM | Cc1cc(N2CCC(CNc3nc(-c4cc(Cl)cc(Cl)c4)no3)CC2)ccn1 [Compound 233]
29.5 µM | Cc1cc(N2CC[C@H](CNc3nc(-c4cc(Cl)cc(Cl)c4)no3)C2)ccn1 [Compound 235]
7.3 µM | COc1cc(OC)cc(-c2noc(N3CCCC4(CCN(c5ccncc5OC)CC4)C3)n2)c1 [Compound 237]
≥ 50 µM | Cc1cc(NC(=O)C2CCN(c3nc(-c4cc(Cl)cc(Cl)c4)no3)CC2)ccn1 [Compound 238, 1-(3-(3,5-dichlorophenyl)-1,2,4-oxadiazol-5-yl)-N-(2-methylpyridin-4-yl)piperidine-4-carboxamide]
